# Assay results taken from US20240122930A1, “INTEGRIN INHIBITORS AND USES THEREOF IN COMBINATION WITH OTHER AGENTS” (Pliant Therapeutics, Inc., priority 2022, published 2024).
# “Also recorded” adds a separate entry of the source.
# How the values were obtained:
# [1] = tested on: PRO-C3, Type III collagen synthesis neoepitope; assay: Phase 2a clinical trial: serum biomarker PRO-C3; format: in vivo, human; conditions: IPF participants, 40 to 320 mg, 4 to 24 weeks
# Protocol: (§1) Blank columns represent 40 mg Compound 5 dosage. Grid pattern filled columns represent 80 mg Compound 5 dosage. Diagonal line filled columns represent 160 mg Compound 5 dosage. Dot filled columns represent all participants dosed with Compound 5. […] In FIG. 21, LS refers to Least Squares and SEM refers to Standard Error of Mean.
# (§2) PRO-C3 and PRO-C6, serum biomarkers of type III and VI collagen synthesis, respectively, were previously shown to be elevated in patients with IPF and associated with progressive disease, according to Respir Res. 2019 Jul. 12; 20(1):148. Doi: 10.1186/s12931-019-1118-7, which is herein incorporated by reference in its entirety. Change from baseline was analyzed using a mixed model for repeated measures with terms for treatment group, visit, baseline value, and treatment-by-visit interaction. LS refers to Least Squares; SE refers to Standard Error.
# Med. 2022 June; 10(6):593-602, which is incorporated herein by reference in its entirety. […] Res. 2019 Jul. 12; 20(1):148, which is incorporated herein by reference in its entirety. ** denotes that p<0.01 vs placebo. LS refers to Least Squares. SE refers to Standard Error. Integrin beta-6 data was reported in relative quantitation log2 scale.
# [2] = tested on: normal human bronchial epithelial cells; assay: LAP adhesion assay, normal human bronchial epithelial cells (xCELLigence); format: cell-based; conditions: FIG. 3A
# Protocol: Two latency associated peptide (LAP) adhesion binding assays were devised using primary human lung cells, including normal (healthy) human bronchial epithelial cells and human lung fibroblasts (healthy and IPF).
# Human bronchial epithelial cells are known to express αVβ6 integrin in culture. Human bronchial epithelial cells were prepared for the assay by dissociation with trypsin/EDTA and were then seeded at 20,000 cells per well on 96 well plates (ACEA Bioscience E-plate View, Acea Biosciences; San Diego, CA) previously coated with 5 μg/ml of recombinant human LAP (R&D Systems; Minneapolis, MN) and blocked with 4% bovine serum albumin.
# [3] = tested on: PRO-C6, Type VI collagen synthesis neoepitope; assay: Phase 2a clinical trial: serum biomarker PRO-C6; format: in vivo, human; conditions: IPF participants, 40 to 320 mg, 4 and 12 weeks
# Protocol: as §1, §2
# αVβ6 = biological target: T1, αVβ6 (Homo sapiens, UniProt P06756+P18564); assay: αVβ6 target engagement by [18F]FP-R01-MG-F2 PET/CT in participants with IPF; format: in vivo; parameters: Vt / Vs (Vt − VND): unit not given here; conditions: for Vs (Vt − VND): VND = 0.66
# T1 construct: clinical trial evaluating αVβ6 receptor occupancy in the lungs; from tissue; host or cells: lungs of human participants with IPF (in vivo PET/CT)
# Protocol: (§3) The aim of this Example is to assess target engagement of the disclosed compounds to αVβ6 in human participants with IPF using [^18F]FP-R01-MG-F2 PET/computerized tomography (CT) imaging.
# (§4) This Example was conducted as an open-label, single-dose (60 mg, 120 mg, 240 mg or 320 mg) clinical trial evaluating αVβ6 receptor occupancy in the lungs, safety, and pharmacokinetics of Compound #5 in subjects with IPF. To date, 4 participants have completed the study. Each of these 4 participants was undergoing a pre-existing course of therapy using one of the SoC (Standard of Care) compounds, nintedanib. These participants continued their pre-existing nintedanib therapy throughout this study. Knottin tracer uptake kinetics were compared pre- and post-dose of the disclosed compound, as measured by standardized uptake values (SUVs) and parameters estimated from kinetic modeling in regions-of-interest on dynamic [^18F]FP-R01-MG-F2 PET/CT scans. […] Receptor occupancy was estimated from the output of the two-compartment model (VT, the […]) using standard equations and fitting algorithms, and corrections for VND (non-displaceable tracer binding). For example, in FIG. 10, the data points, shown as circles, are modeled by the following formula: […]
# (§5) Five subjects with IPF were enrolled: Subject A received a single dose of 60 mg of the disclosed compound followed by a post-dose scan. Subject B received two doses of the disclosed compound separated by two weeks, 120 mg and 240 mg, each followed by a post-dose scan. Subject C received two doses of the disclosed compound separated by two weeks, 240 mg and 320 mg, each followed by a post-dose scan. Subject D received a single dose of 320 mg of the disclosed compound followed by a post-dose scan.
# [4] = as above; format: in vivo, human; parameters: Vt / Vs (Vt − VND): unit not given here; conditions: human, plasma; Subject C, 320 mg; read-out: Conc (Unbound Plasma Concentration)
# Protocol: as §3, §4, §5
# lung Col1a1 expression = assay: Precision cut lung slices, chronic bleomycin exposure, versus and with nintedanib and pirfenidone; format: cell-based, mice (C57BL/6); conditions: chronic bleomycin PCLS; for lung slice Col1a1 expression vs DMSO vehicle control slices: 7 days
# Protocol: Mice (C57BL/6) were administered 3 U/kg of bleomycin (Teva Pharmaceuticals; North Wales, PA) on Day 0 and 1 U/kg of bleomycin on days 14, 28, 42 and 56 via oropharyngeal aspiration while under anesthesia. At day 70, 14 days following the final bleomycin insult, precision cut lung slices were obtained. […] The lobes were then subjected to precision slicing to obtain samples for culture using a microtome (Compresstome VF-300-OZ, Precisionary; Greenville, NC). Individual slices were distributed in a multiwell culture plate and cultured for 7 days under control (DMSO) and test compound conditions. The viability of the slices over the course of culturing was confirmed by WST-1 assay of mitochondrial activity. During the culture period, slices in the control group were treated with DMSO and slices in the test group were treated with a DMSO solution of one of: […]
# [5] = % target engagement fit of FIG. 10
# T1 sequence (P06756 31-1048): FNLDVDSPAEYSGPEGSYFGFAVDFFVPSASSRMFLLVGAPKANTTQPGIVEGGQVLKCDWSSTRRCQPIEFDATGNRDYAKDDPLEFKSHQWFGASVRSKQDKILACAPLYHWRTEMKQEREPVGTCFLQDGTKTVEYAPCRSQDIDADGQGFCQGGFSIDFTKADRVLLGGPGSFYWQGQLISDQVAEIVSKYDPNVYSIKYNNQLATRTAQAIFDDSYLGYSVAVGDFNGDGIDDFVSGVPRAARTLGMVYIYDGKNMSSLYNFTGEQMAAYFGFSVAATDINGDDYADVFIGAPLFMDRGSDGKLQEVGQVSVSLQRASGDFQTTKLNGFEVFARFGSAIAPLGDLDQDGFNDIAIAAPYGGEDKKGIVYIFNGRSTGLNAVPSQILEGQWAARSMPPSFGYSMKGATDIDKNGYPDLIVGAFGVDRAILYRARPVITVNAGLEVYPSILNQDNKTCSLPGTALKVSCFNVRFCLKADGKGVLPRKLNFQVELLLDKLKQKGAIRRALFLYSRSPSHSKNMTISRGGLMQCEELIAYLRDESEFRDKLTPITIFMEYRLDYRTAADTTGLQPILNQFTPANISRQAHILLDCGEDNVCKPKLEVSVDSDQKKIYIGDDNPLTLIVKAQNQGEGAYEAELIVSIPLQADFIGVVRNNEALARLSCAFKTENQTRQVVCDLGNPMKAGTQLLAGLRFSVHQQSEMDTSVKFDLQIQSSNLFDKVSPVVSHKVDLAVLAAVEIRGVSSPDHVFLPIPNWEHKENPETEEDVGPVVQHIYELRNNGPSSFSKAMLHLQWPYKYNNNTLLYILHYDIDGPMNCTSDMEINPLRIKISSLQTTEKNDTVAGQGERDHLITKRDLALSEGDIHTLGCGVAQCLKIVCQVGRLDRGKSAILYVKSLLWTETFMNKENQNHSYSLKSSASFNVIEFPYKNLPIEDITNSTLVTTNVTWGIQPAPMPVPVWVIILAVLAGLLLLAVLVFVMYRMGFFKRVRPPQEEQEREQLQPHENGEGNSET
# T1 sequence (P18564 22-788): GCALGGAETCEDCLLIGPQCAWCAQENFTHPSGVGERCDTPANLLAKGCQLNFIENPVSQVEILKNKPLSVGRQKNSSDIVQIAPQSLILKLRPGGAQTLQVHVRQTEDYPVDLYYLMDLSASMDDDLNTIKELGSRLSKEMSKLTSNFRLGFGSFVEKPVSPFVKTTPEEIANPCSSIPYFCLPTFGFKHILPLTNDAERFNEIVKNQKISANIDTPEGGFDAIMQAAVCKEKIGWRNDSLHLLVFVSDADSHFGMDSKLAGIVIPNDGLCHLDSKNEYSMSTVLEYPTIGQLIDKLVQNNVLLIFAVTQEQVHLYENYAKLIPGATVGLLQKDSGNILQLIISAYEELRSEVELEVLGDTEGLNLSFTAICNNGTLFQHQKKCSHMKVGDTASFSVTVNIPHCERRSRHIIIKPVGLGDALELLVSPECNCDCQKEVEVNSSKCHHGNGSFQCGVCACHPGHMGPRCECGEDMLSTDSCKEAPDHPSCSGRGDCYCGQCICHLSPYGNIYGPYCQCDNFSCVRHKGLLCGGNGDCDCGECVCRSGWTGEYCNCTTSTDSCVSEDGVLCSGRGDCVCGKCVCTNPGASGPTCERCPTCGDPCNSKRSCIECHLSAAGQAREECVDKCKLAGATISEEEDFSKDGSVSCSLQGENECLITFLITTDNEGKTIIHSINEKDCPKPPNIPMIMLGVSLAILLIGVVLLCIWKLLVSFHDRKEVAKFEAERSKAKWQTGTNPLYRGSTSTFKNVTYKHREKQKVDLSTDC
structure (smiles),measurement,setting,value
"COCCN(CCCCc1ccc2c(n1)NCCC2)CC[C@H](Nc1ncnc2ccccc12)C(=O)O [Compound 5, (S)-4-((2-methoxyethyl) (4-(5,6,7,8-tetrahydro-1,8-naphthyridin-2-yl)butyl)amino)-2-(quinazolin-4-ylamino) butanoic acid]","Serum PRO-C3, change from baseline relative to placebo",[1],decreased; also recorded: reduced; also recorded: dose-dependent reduction
same,normal bronchial epithelial cell adhesion to LAP,[2],substantially inhibited
same,"Serum PRO-C6, change from baseline relative to placebo",[3],decreased; also recorded: reduced
same,decrease of the volume of distribution of the knottin radiotracer in the lungs,αVβ6; 60 mg dose,approximately 50%
same,decrease of the volume of distribution of the knottin radiotracer in the lungs,αVβ6; 240 and 320 mg doses,greater than 95%
same,best-fit bottom value,αVβ6; [5],0
same,best-fit hillslope value,αVβ6; [5],1.11
same,best-fit top value,αVβ6; [5],87.4
same,Conc (Unbound Plasma Concentration),"αVβ6; Subject A, 60 mg",3.66 nM
same,Vt,"αVβ6; Subject A, post-dose 60 mg",1.84
same,Vs (Vt − VND),"αVβ6; Subject A, post-dose 60 mg",1.18
same,Conc (Unbound Plasma Concentration),"αVβ6; Subject B, 120 mg",10 nM
same,%DeltaVt,"αVβ6; Subject B, 120 mg, corrected for non-displaceable binding",59.76%
same,Conc (Unbound Plasma Concentration),"αVβ6; Subject B, 240 mg",58.3 nM
same,Vt,"αVβ6; Subject B, post-dose 120 mg",1.65
same,Vs (Vt − VND),"αVβ6; Subject B, post-dose 120 mg",0.99
same,Vt,"αVβ6; Subject B, post-dose 240 mg",0.72
same,Vs (Vt − VND),"αVβ6; Subject B, post-dose 240 mg",0.06
same,Conc (Unbound Plasma Concentration),"αVβ6; Subject C, 240 mg",103 nM
same,Vt,"αVβ6; Subject C, post-dose 240 mg",0.98
same,Vs (Vt − VND),"αVβ6; Subject C, post-dose 240 mg",0.32
same,Vt,"αVβ6; Subject C, post-dose 320 mg",0.85
same,Vs (Vt − VND),"αVβ6; Subject C, post-dose 320 mg",0.19
same,Conc (Unbound Plasma Concentration),"αVβ6; Subject D, 320 mg",33.6 nM
same,Vt,"αVβ6; Subject D, post-dose 320 mg",0.75
same,Vs (Vt − VND),"αVβ6; Subject D, post-dose 320 mg",0.09
same,Receptor occupancy,αVβ6; at pharmacologically relevant plasma concentrations,> 95%
same,concentration at which the exposure response saturates,"αVβ6; drug exposure at 4 hours, approaching 100% receptor occupancy",about 100 nM
same,EC50,"αVβ6; unbound plasma concentration vs % target engagement, 4-parameter non-linear regression (FIG. 10), read-out: best-fit EC50",2.96 nM
same,concentration at 4 h,[4],98.5 nM
same,lung Col1a1 expression vs DMSO vehicle control slices,"lung Col1a1 expression; 7 days culture, single agents","substantial, statistically significant (p<0.01 vs vehicle) decrease"
same,lung slice Col1a1 expression vs DMSO vehicle control slices,lung Col1a1 expression; in combination with nintedanib,"substantial, statistically significant (p<0.01 vs vehicle) decrease"
same,lung slice Col1a1 expression vs DMSO vehicle control slices,lung Col1a1 expression; in combination with pirfenidone,"substantial, statistically significant (p<0.01 vs vehicle) decrease"
